Reference: PMC7156724, “Potent BRD4 inhibitor suppresses cancer cell-macrophage interaction” (Nature Communications, 2020)
Values joined by “and” are separate entries in the source; they are usually repeats but may differ in a detail not shown here. Identical values can stand only once.

Assays:
[1] = tested on: A2780 cells; experiment: MTT cell growth assay, A2780; format: cell-based, human; settings: 5 days
Procedure: (§1) Fig. 2 NHWD-870 inhibited BRD4 phosphorylation and c-MYC expression, and suppressed cell growth. a Representative western blot analysis of p-BRD4 (s484/488), BRD4, c-MYC, and GAPDH after treatment of MDA-MB231, SUM159, A2780 ES-2, and H526 cells with JQ-1 or NHWD-870 at the indicated concentrations for 24 h. GAPDH served as the loading control. Selected from three independent experiments. b MTT assays of H526, A2780, ES-2, and MDA-MB231 cells treated with JQ-1 or NHWD-870 at the indicated concentrations for 5 days. Data are presented as mean ± SEM from three independent experiments. c, d Clonogenic assays of H526, A2780, ES-2 and MDA-MB231 cells treated with 250 nM JQ-1 or NHWD-870 for 5 days. Shown are representative images (c) and quantification of colonies (d). […] Shown are representative images (e) and quantification of relative colony sizes (f). Scale bar, 50 μm. Data are presented as mean ± SEM from five independent experiments. p values were calculated using two-tailed, unpaired t tests in this figure. **p < 0.01; ***p < 0.001. Source data are provided as a Source Data file.
37℃, 5% CO2. […]

[2] = tested on: MDA-MB231 cells; experiment: 3D matrigel assay, MDA-MB231; format: cell-based, human; settings: MDA-MB231, 100 nM
Procedure: as §1
Single clone spheroids were generated by culturing A2780, ES-2, H526 and MDA-MB231 cells for 16 h as a hanging drop over a humidified plate in a CO2 incubator in their corresponding complete media. […] The relative spheroid sizes were measured with ImageJ version 1.52s using the 15 representative spheroids.

[3] = Equilibrium dialysis assay, SD rat plasma
Procedure: The concentration was calculated using the peak area ratio of analyte and internal […]
The results were calculated by the following equations:
% Unbound = 100 *FC / TC, % Bound = 100 * (1-FC / TC)
% Recovery = 100 * (FC + TC) / T0
TC = Total compound concentration as determined by the calculated concentration on the retentate side of the membrane
FC = Free compound concentration as determined by the calculated concentration on the dialysate side of the membrane […]
Equation of first order kinetics: […]
8. Equilibrium dialysis assay. Binding with plasma protein and recovery rate of NHWD-870 were performed with human, CD-1 mouse and SD rat plasma as […]
described 2. […] The concentration was […]
calculated using the peak area ratio of analyte and internal standard. The results were calculated by the following equations: % Unbound = 100 *FC / TC, % Bound = 100 * (1-FC / TC); % Recovery = 100 * (FC + TC) / T0; TC = Total compound concentration as determined by the calculated concentration on the retentate side of the membrane; FC = Free compound concentration as determined by the (1 picture or pasted object on this page, not shown here) […]
calculated concentration on the dialysate side of the membrane; T0 = To t a l compound concentration as determined before dialysis. […]
10. hERG channel assay. […]
HEK293 cell line stably

[4] = tested on: TAMs (CD68+ cells) in A2780 tumors; experiment: Immunofluorescent staining of CD68 and Ki67 (TAMs) in subcutaneous A2780 tumors; format: in vivo, mouse; settings: individual tumors
From the text: Shown are immunofluorescent staining of CD68 (macrophage marker, red) and E-Cadherin (cancer cells, green) (a) and quantification of CD68 positive cells (b) in vehicle, NHWD-870 treated H526 (n = 6) and A2780 (n = 5) tumors from Fig. 3a, b, respectively. Scale bar is 100 μm. […] Shown are representative immunofluorescent staining of Ki67 and CD68 (c) and quantification of percentage of Ki67+ cells in CD68+ cells (d). Scale bar is 30 μm. Data are presented as mean ± SEM of five different tumors. e Schematics of the animal experiments using an orthotopic mouse OC model, established by intraperitoneally injecting human A2780 cells into female recipient nude mice. […] Shown are representative immunofluorescent staining of Ki67 and CD68 (h) and quantification of Ki67^+CD68^− (i) or Ki67^+CD68^+ (j), or CD68^+ cells (k). […] Data are presented as mean ± SEM from five different mice. p values were calculated using two-tailed, unpaired t tests in this figure. *p < 0.05; **p < 0.01; ***p < 0.001. […]
Immunofluorescence staining of tumor sections was performed according to the manufacturer’s instructions. Slides were imaged using a Zeiss Axiovert 200 fluorescence microscope (Carl Zeiss MicroImaging; Thornwood, NY), and images were captured using Openlab3 software (Imprecision, Lexington, MA). Cleaved caspase 3, Ki67, CSF1, and CD68 positive cells were counted with ImageJ version 1.52s[58].

## Cc1nnn(C)c1-c1cnc2c3c4cnn(C)c4ccc3n([C@H](c3ccccc3)C3CCOCC3)c2c1 [NHWD-870]
[1]; A2780, 0.1 nM
  MTT assay, relative cell number: 0.974 and 0.959 and 0.985
[1]; A2780, 1 nM
  MTT assay, relative cell number: 0.705 and 0.725 and 0.731
[1]; A2780, 10 nM
  MTT assay, relative cell number: 0.252 and 0.282 and 0.215
[1]; A2780, 100 nM
  MTT assay, relative cell number: 0.025 and 0.047 and 0.033
[1]; A2780, 500 nM
  MTT assay, relative cell number: 0
[1]; A2780, 1000 nM
  MTT assay, relative cell number: 0
[1]; A2780, 5000 nM
  MTT assay, relative cell number: 0
[1]; A2780, 10000 nM
  MTT assay, relative cell number: 0
[2]
  Clone Size (relative colony size, 3D matrigel assay): 23.2 and 29.8 and 19 and 25.8 and 21.1
[3]; SD rat plasma, equilibrium dialysis
  % Bound: 95.4%
[3]; SD, rat, plasma
  fraction unbound: 0.046
  recovery: 92.5%
[4]; subcutaneous A2780 tumors from Fig. 3b
  quantification of CD68 positive cells: 0.5 and 0.3 and 0.2 and 1.2 and 2.3
[4]; subcutaneous A2780 tumors
  percentage of Ki67+ cells in CD68+ cells: 3.1 and 0 (3×) and 1.7
